This note sets out measurements from patent US8791132B2, “Compounds and methods for treatment of hypertension” (Medivation Technologies, Inc., priority 2011, dated 2014).

In test [1] the target is T1, human recombinant adrenergic α1D receptor (Homo sapiens, UniProt P25100).
T1 construct: expressed in transfected cells; host or cells: HEK-293
T1 sequence (P25100 1-572): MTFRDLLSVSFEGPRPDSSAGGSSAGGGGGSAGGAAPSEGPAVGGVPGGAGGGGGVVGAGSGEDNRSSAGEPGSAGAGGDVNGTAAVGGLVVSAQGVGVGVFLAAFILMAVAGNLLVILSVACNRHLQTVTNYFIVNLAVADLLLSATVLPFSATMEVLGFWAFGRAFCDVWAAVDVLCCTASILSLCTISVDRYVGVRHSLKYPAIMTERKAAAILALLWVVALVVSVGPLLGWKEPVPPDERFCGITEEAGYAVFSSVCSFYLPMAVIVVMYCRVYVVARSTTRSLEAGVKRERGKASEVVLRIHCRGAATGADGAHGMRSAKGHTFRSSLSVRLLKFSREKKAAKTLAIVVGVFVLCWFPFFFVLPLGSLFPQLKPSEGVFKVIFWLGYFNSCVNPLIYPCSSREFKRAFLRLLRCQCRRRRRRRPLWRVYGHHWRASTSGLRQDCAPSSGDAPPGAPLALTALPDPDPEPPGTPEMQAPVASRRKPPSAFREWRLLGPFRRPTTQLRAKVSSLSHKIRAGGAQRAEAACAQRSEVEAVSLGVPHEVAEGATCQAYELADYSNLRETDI
The test can be described thus: Radioligand binding, adrenergic α1D ([3H]Prazosin).

Test [2] deals with T2, human Adrenergic a2A receptor (Homo sapiens, UniProt P08913).
T2 construct: purchased Euroscreen FAST-006G
T2 sequence (P08913 1-465): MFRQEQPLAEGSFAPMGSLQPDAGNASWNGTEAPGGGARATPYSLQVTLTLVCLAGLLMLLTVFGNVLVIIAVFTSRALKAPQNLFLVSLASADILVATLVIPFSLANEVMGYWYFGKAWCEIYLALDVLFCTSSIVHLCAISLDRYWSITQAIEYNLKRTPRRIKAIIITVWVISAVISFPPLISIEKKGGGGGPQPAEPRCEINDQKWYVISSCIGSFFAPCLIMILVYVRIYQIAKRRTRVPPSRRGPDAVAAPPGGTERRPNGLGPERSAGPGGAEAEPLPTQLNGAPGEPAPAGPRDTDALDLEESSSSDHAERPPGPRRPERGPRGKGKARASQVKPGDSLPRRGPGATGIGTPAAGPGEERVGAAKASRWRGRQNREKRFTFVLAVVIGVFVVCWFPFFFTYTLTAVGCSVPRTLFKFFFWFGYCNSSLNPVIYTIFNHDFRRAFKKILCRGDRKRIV
The test can be described thus: Inverse agonist activity, GTPg35S binding functional assay (FAST-006G). Format: biochemical. The following applies: dose-response, duplicates (FIG. 28). On the procedure:
SPA 35S-GTPgS and Radioligand Binding experiments were conducted with Euroscreen membrane preparations. Compound was tested for inverse agonist activity at the human Adrenergic a2A receptor using GTPg35S binding functional assay (FAST-006G) in dose-response and in duplicates.

A word on the Ki: it is the equilibrium dissociation constant of an inhibitor or competing ligand from its target.

With `Cc1ccc2c(c1)c1c(n2CC(O)c2ccncc2)CCN(C)C1` (single isomer, unassigned) [3b], the inhibition constant Ki in test [1] worked out at 258 nM.
`Cc1ccc2c(c1)c1c(n2CC(O)c2ccncc2)CCN2CCCC12` (single isomer, unassigned) [129d]: in test [2], the inverse agonist activity entry is listed as “showed inverse agonist activity”.
